Measurements from patent US9828343B2, “Histone demethylase inhibitors” (Celgene Quanticel Research, Inc., priority 2012, dated 2017).

Target: JMJD2C (Homo sapiens (Human), UniProt Q9H3R0)
Assay: JMJD2C TR-FRET in vitro enzyme inhibition assay
Type: biochemical
Settings: 0.3 nM JMJD2C, H3K9me3-biotin peptide, 2 μM alpha-ketoglutaric acid
Description: This assay determines the ability of a test compound to inhibit Jarid1A, Jarid1B, and JMJD2C demethylase activity. Baculovirus expressed Jarid1A (GenBank Accession #NM_001042603, AA1-1090) was purchased from BPS Bioscience (Cat#50110). Baculovirus expressed Jarid1B (GenBank Accession #NM_006618, AA 2-751) was purchased from BPS Bioscience (Cat #50121) or custom made by MolecularThroughput. Baculovirus-expressed JMJD2C (GenBank Accession #BC143571, AA 2-372) was purchased from BPS Bioscience (Cat#50105).
The ability of test compounds to inhibit the activity of JMJD2C was determined in 384-well plate format under the following reaction conditions: 0.3 nM JMJD2C, 300 nM H3K9me3-biotin labeled peptide (Anaspec cat #64360), 2 μM alpha-ketoglutaric acid in assay buffer of 50 mM HEPES, pH7.3, 0.005% Brij35, 0.5 mM TCEP, 0.2 mg/ml BSA, 50 μM sodium L-ascorbate, and 2 μM ammonium iron(II) sulfate. Reaction product was determined quantitatively by TR-FRET after the addition of detection reagent Phycolink Streptavidin-allophycocyanin (Prozyme) and Europium-anti-di-methylated histone H3 lysine 9 (H3K9me2) antibody (PerkinElmer) in the presence of 5 mM EDTA in LANCE detection buffer (PerkinElmer) at a final concentration of 50 nM and 1 nM, respectively. […]

Sequence of JMJD2C (Q9H3R0 2-372): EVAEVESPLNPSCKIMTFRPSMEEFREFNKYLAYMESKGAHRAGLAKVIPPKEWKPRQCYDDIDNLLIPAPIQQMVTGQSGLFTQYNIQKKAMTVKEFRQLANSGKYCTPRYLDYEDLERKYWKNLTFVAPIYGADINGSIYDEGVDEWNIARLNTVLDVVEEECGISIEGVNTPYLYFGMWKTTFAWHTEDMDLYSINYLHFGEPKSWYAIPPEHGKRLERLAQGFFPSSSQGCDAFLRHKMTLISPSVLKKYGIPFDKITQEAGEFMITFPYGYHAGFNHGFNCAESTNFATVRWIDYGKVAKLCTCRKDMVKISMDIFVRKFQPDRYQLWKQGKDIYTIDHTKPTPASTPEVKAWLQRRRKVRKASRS

Molecule: O=C(O)c1ccncc1NCC1(O)CCCc2cc(Cl)ccc21 (centres unmarked) [Example 68, 3-{[(6-chloro-1-hydroxy-1,2,3,4-tetrahydronaphthalen-1-yl)methyl]amino}pyridine-4-carboxylic acid]
- IC50: 100 to 1000 nM

Molecule: 3-{[(6-fluoro-3,4-dihydro-2H-chromen-4-yl)methyl]amino}pyridine-4-carboxylic acid [Example 65]
- IC50: < 100 nM
